Tested on: miR-34a promoter
Assay: Bisulfite sequencing of miR-34a promoter CpG methylation after 5Aza-2′dC treatment
Type: cell-based, human
Conditions: LAPC-4 cells
Excerpt: (a) Pattern of CpG methylation in the miR-34a promoter region in prostate epithelial cells and derived cancer cell lines. The depicted region corresponds to 2.5 kbp upstream of the transcriptional start site (TSS, position indicated by arrow). Vertical bars represent CpG-dinucleotides. The position of the p53 binding site is indicated. The horizontal bars indicate amplified PCR products which were sub-cloned and analyzed by sequencing (gray: distal fragment, black: proximal fragment). The combined results obtained by sequencing of 8 independent subclones are shown for each cell line. Black areas represent the degree of cytosine methylation at the respective CpG position. The white shaded areas indicate methylation after treatment of LAPC-4 cells with 5Aza-2′dC. The open rectangles correspond to the regions covered by the MSP primers. IVM DNA was used as positive control for amplification of the M product. BPH1: benign prostate hyperplasia cells immortalized with SV40 large T antigen. IVM: in vitro methylated DNA.
Reversion of genomic methylation. Cells were grown in the presence of 1 μM 5-aza-2′deoxycytidine (5Aza-2′dC, Sigma) for 72 hours and 300 nM trichostatin A (TSA, Sigma) for the last 24 hours. […]
Bisulfite sequencing. […] For each cell line at least 8 individual clones were sequenced on both strands using M13 primers and BigDye terminator, and analyzed on a 3700 capillary sequencer (Applera).

SMILES: Nc1ncn([C@H]2C[C@H](O)[C@@H](CO)O2)c(=O)n1 [5Aza-2′dC, 5-aza-2′deoxycytidine]
- level of CpG methylation of miR-34a: reduction in the level of CpG methylation

Source: patent publication US20130096185A1, “INACTIVATION OF miR-34a BY ABERRANT CpG METHYLATION IN CANCER” (priority 2008, published 2013)
